Measurements taken from US20060235062A1, “Novel heterocyclic analogs of diphenylethylene compounds” (THERACOS, INC., priority 2002, published 2006).

Key:
[1] = system: ZDF rats; test: Antihyperglycemic activity in Zucker diabetic fatty rats; format: in vivo
[2] = target: T1, COX-2 (Mus musculus, UniProt Q05769); test: LPS-induced COX-2 activity in RAW cells (PGE2 production); format: cell-based; conditions: 0.1-100 μM, FIG. 12
T1 sequence (Q05769 18-604): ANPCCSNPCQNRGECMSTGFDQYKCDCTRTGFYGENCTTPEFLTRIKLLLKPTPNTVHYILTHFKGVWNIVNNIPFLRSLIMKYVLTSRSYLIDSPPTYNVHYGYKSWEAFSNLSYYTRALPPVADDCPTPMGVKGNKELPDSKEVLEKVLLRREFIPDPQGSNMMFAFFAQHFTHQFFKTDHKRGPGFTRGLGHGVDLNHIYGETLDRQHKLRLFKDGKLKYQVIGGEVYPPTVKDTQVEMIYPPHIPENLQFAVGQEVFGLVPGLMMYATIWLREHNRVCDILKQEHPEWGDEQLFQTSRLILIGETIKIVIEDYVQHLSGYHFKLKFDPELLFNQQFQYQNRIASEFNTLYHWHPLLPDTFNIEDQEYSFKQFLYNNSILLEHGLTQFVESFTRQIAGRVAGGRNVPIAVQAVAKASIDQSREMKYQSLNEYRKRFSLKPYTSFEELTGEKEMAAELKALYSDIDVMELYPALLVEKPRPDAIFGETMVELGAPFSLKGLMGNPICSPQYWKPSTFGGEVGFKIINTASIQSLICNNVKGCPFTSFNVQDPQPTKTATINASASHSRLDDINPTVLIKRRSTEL
Method: After 1 hour LPS (0.1 pg/mL) was added and cells were incubated an additional 6 hours. Cell supernatant was then collected, aliquoted and frozen at −70° C., and aliquots used to determine COX-2 and COX-1 activity. Compound 11, but not rosiglitazone, inhibited the activity of COX-2 (as measured by PGE2 production in a 50 μl sample).

[3] = system: 3T3-L1 fibroblasts; test: Adipogenesis (triglyceride accumulation) in 3T3-L1 fibroblasts
Method: After two days of growth in 6-well plates, cells were treated either with vehicle (0.1% DMSO) or with compounds for ten days. Fresh medium with compounds or vehicle was replenished every 48 h. Cells were washed with PBS twice and fixed in 10% formalin (Sigma) in PBS. After washing in PBS, cells were stained with freshly diluted Oil Red O in isopropanol for 1 h at room temperature. The cells were washed five times with PBS and visualized under an Olympus BH2 microscope. Quantitative accumulation of triglyceride was also measured under similar experimental conditions, except in this case cells were plated in 100-mm tissue culture dishes. Triglyceride was extracted with methanol:chloroform (2:1) mixture. […] Extracted triglyceride was measured by a colorimetric assay (GPO-Trinder, Sigma) according to manufacturer instructions.
After 14 days cells were stained with Oil Red O, counterstained with methylene blue for visual assessment (FIG. 23B) and assayed for triglyceride accumulation.

[4] = system: TNF-alpha; test: LPS-induced TNF-alpha production in RAW cells (ELISA); format: cell-based; conditions: RAW cells, 0.1, 1, 10, 50 or 100 pM, 1 hour preincubation, LPS 6 hours, FIG. 9
[5] = system: 3T3-L1 adipocytes; test: Glucose uptake in differentiated 3T3-L1 adipocytes; format: cell-based
Method: Referring to FIG. 8 glucose uptake in 3T3-L1 differentiated adipocytes was measured after treatment with the test compound. The assay was conducted according to the method of Tafuri, Endocrinology, 137, 4706-4712 (1996). The serum-starved cells were treated with the test compound for 48 hours at different concentrations, then washed and incubated in glucose-free media for 30 minutes at 37° C. Then ^14C-deoxyglucose was added and uptake was monitored for 30 minutes under incubation. After washing, the cells were lysed (0.1% SIDS) and counted.
Basal glucose uptake was measured in differentiated 3T3-L1 adipocytes following the protocol of Tafuri (6) with modifications. Briefly, 3T3-L1 fibroblasts, obtained from ATCC (Manassas, Va.), were differentiated to adipocytes by treating cells with porcine insulin (1 μg/ml for 4 days), dexamethasone (0.25 μM for first 2 days) and isobutyl methyl xanthine (IBMX, 0.5 mM for first 2 days) (all from Sigma Chemicals, St Louis, Mo.) following the protocol of Frost and Lane (7). Differentiated adipocytes were incubated in Dulbecco's Modified Eagle Medium (DMEM) containing 10% fetal bovine serum (GibcoBRL, Gaithersburg, Md.) with various concentrations of Compound 11 or vehicle (0.1% DMSO) for 48 h in 24-well plates, in triplicate. Cells were washed with phosphate buffered saline (PBS, 150 mM NaCl, 1 mM KH2PO4, 3 mM Na2HPO4; pH 7.4) and incubated in glucose-free DMEM for 2 h at 37° C. The cells were washed 3 times with Krebs Ringer Phosphate Buffer (KRP). Glucose uptake was initiated by addition of 0.25 μCi 2-^14C(U)-deoxy-D-glucose (300 μCi/mmol, American Radiolabeled Chemicals Inc., St Louis, Mo.) per well and the cells incubated for 10 min at room temperature in the presence of 0.1 mmol cold 2-deoxy-D-glucose. Finally, the cells were washed three times with ice-cold PBS containing 10 mM cold glucose, lysed with 0.5% SDS, and counted in a scintillation counter (Beckman LS6500).

[6] = system: IkappaB; test: LPS-stimulated phosphorylation of IkappaB in RAW 264.7 cells; format: cell-based; conditions: RAW 264.7 cells, 3, 10 or 30, LPS plus IFN-gamma, anti-phospho-IkappaB blot
[7] = system: db/db mice
[8] = target: T2, PPAR-gamma (Homo sapiens, UniProt P37231); test: Preliminary PPAR-gamma competition binding assays; conditions: data not shown
T2 sequence (P37231 1-505): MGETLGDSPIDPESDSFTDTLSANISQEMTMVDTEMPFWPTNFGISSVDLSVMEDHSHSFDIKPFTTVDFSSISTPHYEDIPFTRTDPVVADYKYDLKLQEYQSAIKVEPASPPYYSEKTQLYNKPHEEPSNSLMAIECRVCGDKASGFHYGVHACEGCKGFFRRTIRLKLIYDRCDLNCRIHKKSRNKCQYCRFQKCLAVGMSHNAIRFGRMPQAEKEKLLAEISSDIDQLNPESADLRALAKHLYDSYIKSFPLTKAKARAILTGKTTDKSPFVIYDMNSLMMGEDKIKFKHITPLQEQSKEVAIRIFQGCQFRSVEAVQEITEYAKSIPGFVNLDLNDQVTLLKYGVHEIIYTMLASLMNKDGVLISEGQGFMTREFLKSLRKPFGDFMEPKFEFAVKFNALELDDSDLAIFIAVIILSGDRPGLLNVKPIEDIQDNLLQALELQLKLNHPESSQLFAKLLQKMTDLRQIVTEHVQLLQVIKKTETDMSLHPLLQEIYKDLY

[9] = system: IL-1-beta; test: LPS-induced IL-1-beta production in RAW cells (ELISA); format: cell-based; conditions: RAW cells, 0.1, 1, 10, 50 or 100 pM, FIG. 11

SMILES: COC(=O)C(=Cc1cc(OC)cc(OC)c1)c1ccc(Oc2ccc(CC3SC(=O)NC3=O)cc2)cc1 (stereo not shown) [Compound 11, 3-(3,5-Dimethoxyphenyl)-2-{4-[4-(2,4-dioxothiazolidin-5-ylmethyl)-phenoxy]-phenyl}-acrylic acid methyl ester]
- glucose levels [1]: normalizes glucose levels
- more weight gained than control animals ([1]; 50 mg/kg oral once daily, 8 to 9 days): 13%
- decrease in blood glucose levels ([1]; 50 mg/kg oral once daily, 8 to 9 days, FIG. 21): 50 % vs baseline
- inhibition of COX-2 activity (PGE2 production) [2]: inhibited
- maximal triglyceride accumulated, increase over control ([3]; 3T3-L1 fibroblasts, 0.1, 1, 10 μM, no dexamethasone, insulin, IBMX, FIG. 23A): 3.96 fold
- cytotoxic concentrations ([3]; 3T3-L1 system, data not shown): ≥ 100 µM
- inhibition of LPS-induced TNF-alpha production [4]: better inhibitor of TNF-alpha than rosiglitazone
- glucose uptake activity in words ([5]; 0.1 μM): retained activity, but less than that of rosiglitazone
- glucose uptake activity in words ([5]; 1 μM): comparable to rosiglitazone
- effect on insulin-stimulated glucose uptake ([5]; 5 μM with increasing insulin, FIG. 20B): additive, not synergistic
- maximum glucose uptake over basal levels ([5]; 0.01-10 μM, 48 h, mean±SE, FIG. 20A): 1.33±0.02 fold
- % Glucose uptake 0.1 μm ([5]; 0.1 μm, average of quadruplicate ± SD): 161.6 ± 11.4 % basal of the non treated cells
- % Glucose uptake 1.0 μm ([5]; 1.0 μm, average of quadruplicate ± SD): 218.1 ± 10.0 % basal of the non treated cells
- inhibition of the phosphorylation of IkappaB [6]: dose-dependent inhibition
- blood glucose level ([7]; db/db male mice, oral 50 mg/kg, 15 days, FIG. 1A): substantial reduction
- decrease in blood glucose levels ([7]; db/db mice, 50 mg/kg oral once daily, 8 to 9 days, FIG. 21): 32 % vs. baseline
- blood glucose lowering effect ([7]; db/db mice, 50 mg/kg/day orally, 14 days, FIG. 16A): dramatic, comparable blood glucose lowering effects
- drop in triglyceride levels ([7]; db/db mice, after 15 days of treatment, FIG. 5A): 24%
- drop in FFA levels ([7]; db/db mice, after 15 days of treatment, FIG. 5B): 34%
- drop in the GHb level ([7]; db/db mice, after 15 days of treatment, FIG. 5C): 0.7%
- increase in the serum leptin level compared to the control group ([7]; db/db mice, after 15 days of treatment, FIG. 5D): 23 °/a
- glucose lowering effect, maximal at 24 hrs ([7]; db/db mice, single oral dose 50 mg/kg, at 24 hrs): 23 % of 0 min
- duration of effect on blood glucose ([7]; db/db mice, single oral dose, FIG. 4): ≥ 24 h
- affinity (Ki) of PPAR-gamma, less than for rosiglitazone [8]: 6.5 fold
- inhibition of LPS-induced IL-1-beta production [9]: inhibited IL-1-beta better than rosiglitazone
